Converted amounts (≈) assume the structure as drawn. “And” between values parts separate entries of the source, which are not always exact repeats. Identical values can stand only once. “Also recorded” adds a separate entry of the source.
Columns and labels:
E. coli W3110 = assay: Checkerboard assay with PMBN;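 for checkerboard plate reading, Average values: OD600 read after 20 h incubation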;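 for checkerboard plate reading, replicate wells: OD600 read after 20 h incubation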
[1] = test system: 60-resistant (60-r) isolates of E. coli W3110; assay: microbe, parasite or virus in culture; assay type: cell-based, Escherichia coli; details: Escherichia coli
Protocol: MIC was determined by broth microdilution. Single-colony cultures were grown to exponential phase (OD600 of 0.5) aerobically at 37 °C. In case of strains from the Keio collection, 50 µg ml^−1 kanamycin was supplemented to the media to ascertain a homogeneous population. The bacterial suspensions were diluted 100-fold in CAMHB and 50 µl was added to a twofold serial dilution series of test compounds (50 µl per well) in polypropylene 96-well microtitre plates to reach a volume of 100 µl. The plates were sealed with breathable membranes and incubated overnight at 37 °C with constant shaking (600 r.p.m.). The MIC was determined as the lowest concentration at which no visible bacterial growth was observed as compared with the inoculum controls from the median of a minimum of triplicates.
The plates were incubated at 37 °C and checked for growth after 24 and 48 h. […] Nine colonies with an increased MIC were selected for further analysis and stored as glycerol stocks.

HEK293T = assay: Cytotoxicity assay (MTT); assay type: cell-based, human; details: for MTT data (raw readout): HEK293T; for IC50: 24 h, MTT
Method in brief: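 HEK293T cells, maintained at 37 °C and 7% CO2 in Dulbecco’s modified Eagle medium with GlutaMax, antibiotics and serum, were plated in clear 96-well plates in 100 µl medium containing 1% fetal bovine serum and left 24 h to attach. After 24 h compound exposure, MTT (0.40 mg ml^−1) was added for 2 h. Formazan was dissolved in 100 µl DMSO and absorbance measured at 570 nm. Background-corrected IC50 values came from variable-slope non-linear fits.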

## O=S(=O)(NC[C@@H]1CC[C@H](c2ccc(-c3cccnc3)cc2)N1)c1cccc2cnccc12 [LEI-800]
E. coli W3110; LEI-800 0.78125 µM + PMBN 0.5 µM (by position)
  checkerboard plate reading, Average values: 0.3258
E. coli W3110; LEI-800 0.78125 µM + PMBN 1 µM (by position)
  checkerboard plate reading, Average values: 0.2348
E. coli W3110; LEI-800 0.78125 µM + PMBN 2 µM (by position)
  checkerboard plate reading, Average values: 0.1359
E. coli W3110; LEI-800 0.78125 µM + PMBN 4 µM (by position)
  checkerboard plate reading, Average values: 0.1369
E. coli W3110; LEI-800 0.78125 µM + PMBN 8 µM (by position)
  checkerboard plate reading, Average values: 0.1405
E. coli W3110; LEI-800 0.78125 µM + PMBN 16 µM (by position)
  checkerboard plate reading, Average values: 0.1463
E. coli W3110; LEI-800 0.78125 µM + PMBN 32 µM (by position)
  checkerboard plate reading, Average values: 0.1515
E. coli W3110; LEI-800 1.5625 µM + PMBN 0 µM (by position)
  checkerboard plate reading, Average values: 0.3277
E. coli W3110; LEI-800 1.5625 µM + PMBN 0.5 µM (by position)
  checkerboard plate reading, Average values: 0.2628
E. coli W3110; LEI-800 1.5625 µM + PMBN 1 µM
  checkerboard plate reading, replicate wells: 0.1569
E. coli W3110; LEI-800 1.5625 µM + PMBN 1 µM (by position)
  checkerboard plate reading, Average values: 0.2051
E. coli W3110; LEI-800 1.5625 µM + PMBN 2 µM
  checkerboard plate reading, replicate wells: 0.1524 and 0.1433 and 0.1454
E. coli W3110; LEI-800 1.5625 µM + PMBN 2 µM (by position)
  checkerboard plate reading, Average values: 0.1478
E. coli W3110; LEI-800 1.5625 µM + PMBN 4 µM
  checkerboard plate reading, replicate wells: 0.1452 and 0.1502 and 0.1384
E. coli W3110; LEI-800 1.5625 µM + PMBN 4 µM (by position)
  checkerboard plate reading, Average values: 0.1494
E. coli W3110; LEI-800 1.5625 µM + PMBN 8 µM (by position)
  checkerboard plate reading, Average values: 0.1497
E. coli W3110; LEI-800 1.5625 µM + PMBN 16 µM (by position)
  checkerboard plate reading, Average values: 0.1521
E. coli W3110; LEI-800 1.5625 µM + PMBN 32 µM (by position)
  checkerboard plate reading, Average values: 0.1528
E. coli W3110; LEI-800 3.125 µM + PMBN 0 µM
  checkerboard plate reading, replicate wells: 0.2026 and 0.2019 and 0.1984
E. coli W3110; LEI-800 3.125 µM + PMBN 0 µM (by position)
  checkerboard plate reading, Average values: 0.201
E. coli W3110; LEI-800 3.125 µM + PMBN 0.5 µM
  checkerboard plate reading, replicate wells: 0.1489 and 0.151 and 0.1511
E. coli W3110; LEI-800 3.125 µM + PMBN 1 µM
  checkerboard plate reading, replicate wells: 0.1556 and 0.1491 and 0.1492
E. coli W3110; LEI-800 3.125 µM + PMBN 1 µM (by position)
  checkerboard plate reading, Average values: 0.1661
E. coli W3110; LEI-800 3.125 µM + PMBN 2 µM
  checkerboard plate reading, replicate wells: 0.1469 and 0.1488 and 0.1457
E. coli W3110; LEI-800 3.125 µM + PMBN 2 µM (by position)
  checkerboard plate reading, Average values: 0.1503
E. coli W3110; LEI-800 3.125 µM + PMBN 4 µM
  checkerboard plate reading, replicate wells: 0.1605 and 0.1486 and 0.1531
E. coli W3110; LEI-800 3.125 µM + PMBN 4 µM (by position)
  checkerboard plate reading, Average values: 0.1504
E. coli W3110; LEI-800 3.125 µM + PMBN 8 µM
  checkerboard plate reading, replicate wells: 0.1502 and 0.1529 and 0.1524
E. coli W3110; LEI-800 3.125 µM + PMBN 8 µM (by position)
  checkerboard plate reading, Average values: 0.1498
E. coli W3110; LEI-800 3.125 µM + PMBN 16 µM
  checkerboard plate reading, replicate wells: 0.1512 and 0.151 and 0.1573
E. coli W3110; LEI-800 3.125 µM + PMBN 16 µM (by position)
  checkerboard plate reading, Average values: 0.1513
E. coli W3110; LEI-800 3.125 µM + PMBN 32 µM
  checkerboard plate reading, replicate wells: 0.1461 and 0.1492 and 0.1481
E. coli W3110; LEI-800 3.125 µM + PMBN 32 µM (by position)
  checkerboard plate reading, Average values: 0.1506
E. coli W3110; LPS disruption (pharmacological)
  MIC E. coli + 8 μM PMBN: 0.4 µM
E. coli W3110; checkerboard
  synergy with PMBN: potentiates; also recorded: Clear synergy
E. coli W3110; checkerboard with PMBN, E. coli W3110
  MSC: 0.39 µM
[1]; E. coli W3110 60-r1
  MIC: > 50 µM
[1]; E. coli W3110 60-r3
  MIC: 12.5 µM (≈ 5.56 µg/mL)
[1]; E. coli W3110 60-r6
  MIC: 12.5 µM (≈ 5.56 µg/mL)
HEK293T; 0.023 uM, experiment n = 1, technical triplicates, listed as LEI-800 (102)
  MTT data (raw readout): 1.514 and 1.430 and 1.503
HEK293T; 0.023 uM, experiment n = 2, technical triplicates, listed as LEI-800 (102)
  MTT data (raw readout): 0.881 and 0.910 and 1.010
HEK293T; 0.068 uM, experiment n = 1, technical triplicates, listed as LEI-800 (102)
  MTT data (raw readout): 1.213 and 1.245 and 1.353
HEK293T; 0.068 uM, experiment n = 2, technical triplicates, listed as LEI-800 (102)
  MTT data (raw readout): 0.864 and 0.913 and 1.008
HEK293T; 0.21 uM, experiment n = 1, technical triplicates, listed as LEI-800 (102)
  MTT data (raw readout): 1.179 and 1.313 and 1.432
HEK293T; 0.21 uM, experiment n = 2, technical triplicates, listed as LEI-800 (102)
  MTT data (raw readout): 0.911 and 0.971 and 1.136
HEK293T; 0.62 uM, experiment n = 1, technical triplicates, listed as LEI-800 (102)
  MTT data (raw readout): 1.153 and 1.305 and 1.537
HEK293T; 0.62 uM, experiment n = 2, technical triplicates, listed as LEI-800 (102)
  MTT data (raw readout): 0.849 and 0.899 and 1.012
HEK293T; 1.85 uM, experiment n = 1, technical triplicates, listed as LEI-800 (102)
  MTT data (raw readout): 1.133 and 1.157 and 1.398
HEK293T; 1.85 uM, experiment n = 2, technical triplicates, listed as LEI-800 (102)
  MTT data (raw readout): 0.878 and 0.935 and 1.030
HEK293T; Homo sapiens, HEK-293T
  IC50: 65 µM
HEK293T; listed as LEI-800 (102)
  IC50: > 50 µM

— PMC11374673, “Discovery of isoquinoline sulfonamides as allosteric gyrase inhibitors with activity against fluoroquinolone-resistant bacteria” (Nature Chemistry, 2024)
